In the NIST ThermoML archive (doi:10.1016/j.jct.2017.03.026):
Values joined by “and” are separate entries in the source; they are usually repeats but may differ in a detail not shown here. Equal entries are not always repeated.

Test: molar heat capacity at constant pressure
Settings: 101.33 kPa, Crystal, Small (less than 1 g) adiabatic calorimetry

O.O.O.O.O.O=S(=O)([O-])[O-].[Cu+2] [copper(II) sulfate pentahydrate]
Settings | molar heat capacity at constant pressure
37.11 K | 32.81 J/K/mol
37.27 K | 32.75 J/K/mol
37.57 K | 33.3 J/K/mol
37.61 K | 33.52 J/K/mol
38.25 K | 34.37 J/K/mol
38.34 K | 34.7 J/K/mol
38.38 K | 34.84 J/K/mol
38.55 K | 34.93 J/K/mol
39.23 K | 35.95 J/K/mol
39.54 K | 36.51 J/K/mol
40 K | 37.15 J/K/mol
40.22 K | 37.51 J/K/mol
40.31 K | 37.77 J/K/mol
40.35 K | 37.93 J/K/mol
41.2 K | 39.02 J/K/mol
42.19 K | 40.35 J/K/mol
42.29 K | 40.63 J/K/mol
42.32 K | 41.04 J/K/mol
43.17 K | 41.93 J/K/mol
44.16 K | 43.29 J/K/mol
44.27 K | 43.38 J/K/mol
44.29 K | 44.04 J/K/mol
45 K | 44.39 J/K/mol
45.14 K | 44.61 J/K/mol
46.12 K | 45.87 J/K/mol
46.25 K | 46.08 J/K/mol
46.27 K | 47.03 J/K/mol
47.11 K | 47.24 J/K/mol
48.1 K | 48.62 J/K/mol
48.23 K | 48.95 J/K/mol
48.24 K | 49.93 J/K/mol
49.08 K | 50.18 J/K/mol
50 K | 51.93 J/K/mol
50.07 K | 52.01 J/K/mol
50.21 K | 52.31 J/K/mol
50.22 K | 52.88 J/K/mol
51.06 K | 53.89 J/K/mol
52.04 K | 55.62 J/K/mol
52.19 K | 55.66 J/K/mol and 55.74 J/K/mol
53.03 K | 57.23 J/K/mol
54.02 K | 58.82 J/K/mol
54.17 K | 58.74 J/K/mol
54.18 K | 58.73 J/K/mol
55 K | 60.26 J/K/mol and 60.19 J/K/mol
55.99 K | 61.63 J/K/mol
56.15 K | 61.82 J/K/mol
56.16 K | 61.65 J/K/mol
56.98 K | 62.69 J/K/mol
57.97 K | 63.82 J/K/mol
58.14 K | 64.89 J/K/mol
58.15 K | 64.47 J/K/mol
58.96 K | 65.23 J/K/mol
59.95 K | 66.92 J/K/mol
60 K | 66.98 J/K/mol
60.12 K | 67.94 J/K/mol
60.14 K | 67.3 J/K/mol
60.93 K | 68.42 J/K/mol
61.92 K | 69.94 J/K/mol
62.11 K | 70.89 J/K/mol
62.13 K | 70.09 J/K/mol
62.92 K | 71.4 J/K/mol
63.91 K | 72.71 J/K/mol
64.1 K | 73.66 J/K/mol
64.13 K | 72.85 J/K/mol
64.9 K | 74 J/K/mol
65 K | 74.12 J/K/mol
65.89 K | 75.34 J/K/mol
66.1 K | 76.33 J/K/mol
66.12 K | 75.65 J/K/mol
66.89 K | 76.71 J/K/mol
67.88 K | 78.07 J/K/mol
68.09 K | 78.22 J/K/mol and 78.9 J/K/mol
68.88 K | 79.31 J/K/mol
69.87 K | 80.54 J/K/mol
70 K | 80.85 J/K/mol and 80.84 J/K/mol
70.08 K | 81.47 J/K/mol
71.87 K | 83.38 J/K/mol
72.45 K | 84.21 J/K/mol
72.58 K | 84.91 J/K/mol
74.88 K | 87.18 J/K/mol
75 K | 87.24 J/K/mol
75.45 K | 87.98 J/K/mol
75.59 K | 88.72 J/K/mol
77.89 K | 90.83 J/K/mol
77.95 K | 91.36 J/K/mol
78.48 K | 91.71 J/K/mol
79.11 K | 92.21 J/K/mol
79.15 K | 92.84 J/K/mol
79.36 K | 93.03 J/K/mol
80 K | 93.33 J/K/mol
80.16 K | 93.95 J/K/mol
80.92 K | 94.52 J/K/mol
81.18 K | 95.24 J/K/mol
81.51 K | 95.36 J/K/mol
82.2 K | 96.42 J/K/mol
82.48 K | 96.2 J/K/mol
82.91 K | 97.32 J/K/mol
83.22 K | 97.59 J/K/mol
84.24 K | 98.9 J/K/mol
85 K | 99.12 J/K/mol
85.26 K | 100.17 J/K/mol
85.52 K | 99.69 J/K/mol
85.95 K | 100.9 J/K/mol
86.12 K | 100.4 J/K/mol
86.28 K | 101.27 J/K/mol
87.26 K | 101.63 J/K/mol
87.3 K | 102.49 J/K/mol
88.08 K | 103.41 J/K/mol
88.28 K | 102.83 J/K/mol
88.33 K | 103.67 J/K/mol
88.57 K | 103.19 J/K/mol
89 K | 104.46 J/K/mol
89.31 K | 103.96 J/K/mol
89.36 K | 104.73 J/K/mol
89.57 K | 104.25 J/K/mol
90 K | 104.7 J/K/mol
90.33 K | 105.21 J/K/mol
90.39 K | 105.94 J/K/mol
90.76 K | 106.39 J/K/mol
91.36 K | 106.32 J/K/mol
91.43 K | 107.16 J/K/mol
91.62 K | 106.68 J/K/mol
91.84 K | 106.75 J/K/mol
92.05 K | 107.96 J/K/mol
92.39 K | 107.49 J/K/mol
92.47 K | 108.25 J/K/mol
93.36 K | 109.28 J/K/mol
93.42 K | 108.59 J/K/mol
93.5 K | 109.47 J/K/mol
93.89 K | 109.02 J/K/mol
94.46 K | 109.82 J/K/mol
94.55 K | 110.67 J/K/mol
94.68 K | 110.09 J/K/mol
95 K | 110.3 J/K/mol
95.12 K | 111.38 J/K/mol
95.49 K | 110.97 J/K/mol
95.59 K | 111.73 J/K/mol
95.94 K | 111.25 J/K/mol
95.97 K | 112.11 J/K/mol
96.53 K | 111.9 J/K/mol
96.63 K | 112.87 J/K/mol
97.56 K | 113.1 J/K/mol
97.68 K | 113.95 J/K/mol
97.74 K | 113.41 J/K/mol
97.98 K | 113.44 J/K/mol
98.19 K | 114.68 J/K/mol
98.58 K | 114.96 J/K/mol
98.6 K | 114.41 J/K/mol
98.72 K | 115.17 J/K/mol
99.65 K | 115.37 J/K/mol
99.77 K | 116.31 J/K/mol
100 K | 115.7 J/K/mol
100.03 K | 115.65 J/K/mol
100.69 K | 116.49 J/K/mol
100.81 K | 117.42 J/K/mol
100.82 K | 116.62 J/K/mol
101.2 K | 117.71 J/K/mol
101.27 K | 117.92 J/K/mol
